Measured values published in the NIST ThermoML archive (doi:10.1021/je049762q).
Numbers after ± are expanded uncertainties.

Assay: molar heat capacity at constant pressure
Settings: 101.33 kPa

Brc1ccc(Br)cc1 [1,4-dibromobenzene]
molar heat capacity at constant pressure [J/K/mol]
Settings | Crystal | Liquid
5.27 K | 1.01 ± 0.04 | –
5.8 K | 1.18 ± 0.04 | –
6.45 K | 1.36 ± 0.05 | –
6.5 K | 1.38 ± 0.05 | –
7.46 K | 2.31 ± 0.06 | –
7.64 K | 2.66 ± 0.07 | –
7.71 K | 2.81 ± 0.07 | –
8.52 K | 3.67 ± 0.08 | –
8.77 K | 3.87 ± 0.08 | –
9.03 K | 4.08 ± 0.09 | –
9.52 K | 4.41 ± 0.09 | –
10 K | 5.01 ± 0.1 | –
10.07 K | 5.11 ± 0.1 | –
10.26 K | 5.43 ± 0.11 | –
10.6 K | 5.83 ± 0.11 | –
11.8 K | 6.63 ± 0.12 | –
12.15 K | 7.18 ± 0.13 | –
12.41 K | 7.69 ± 0.13 | –
12.47 K | 7.8 ± 0.14 | –
13.6 K | 9.64 ± 0.16 | –
14.05 K | 10.68 ± 0.17 | –
14.2 K | 10.78 ± 0.17 | –
15 K | 12.33 ± 0.19 | –
15.55 K | 13.29 ± 0.2 | –
15.57 K | 13.3 ± 0.2 | –
15.9 K | 13.84 ± 0.2 | –
16.68 K | 14.94 ± 0.21 | –
17.46 K | 16.03 ± 0.22 | –
17.68 K | 16.47 ± 0.22 | –
17.94 K | 16.83 ± 0.23 | –
18.59 K | 17.79 ± 0.23 | –
19.73 K | 19.51 ± 0.24 | –
20 K | 19.9 ± 0.24 | –
20.25 K | 20.25 ± 0.25 | –
22.16 K | 22.72 ± 0.25 | –
22.64 K | 23.37 ± 0.26 | –
23.84 K | 25.08 ± 0.26 | –
24.7 K | 25.82 ± 0.26 | –
25 K | 26.17 ± 0.26 | –
26.55 K | 28 ± 0.25 | –
27.15 K | 28.54 ± 0.25 | –
28.82 K | 30.45 ± 0.24 | –
29.32 K | 30.8 ± 0.24 | –
30 K | 31.55 ± 0.21 | –
31.01 K | 32.68 ± 0.21 | –
31.27 K | 32.7 ± 0.21 | –
33.06 K | 34.41 ± 0.22 | –
33.29 K | 34.82 ± 0.22 | –
35.63 K | 36.98 ± 0.23 | –
38.01 K | 38.95 ± 0.24 | –
40 K | 40.38 ± 0.24 | –
40.43 K | 40.7 ± 0.24 | –
42.9 K | 42.52 ± 0.25 | –
45.4 K | 44.29 ± 0.26 | –
47.94 K | 45.99 ± 0.26 | –
50 K | 47.3 ± 0.27 | –
50.51 K | 47.61 ± 0.27 | –
53.12 K | 49.13 ± 0.28 | –
55.75 K | 50.72 ± 0.28 | –
58.41 K | 52.22 ± 0.29 | –
60 K | 53.1 ± 0.29 | –
61.09 K | 53.7 ± 0.3 | –
63.8 K | 55.15 ± 0.3 | –
66.54 K | 56.56 ± 0.31 | –
69.3 K | 57.98 ± 0.31 | –
70 K | 58.33 ± 0.31 | –
72.07 K | 59.33 ± 0.32 | –
74.86 K | 60.72 ± 0.32 | –
77.68 K | 62.03 ± 0.33 | –
80 K | 63.11 ± 0.33 | –
80.51 K | 63.35 ± 0.33 | –
83.36 K | 64.67 ± 0.34 | –
86.22 K | 65.91 ± 0.34 | –
89.08 K | 67.21 ± 0.35 | –
89.28 K | 67.47 ± 0.35 | –
90 K | 67.83 ± 0.54 | –
91.9 K | 68.39 ± 0.54 | –
92.15 K | 68.67 ± 0.54 | –
94.65 K | 69.5 ± 0.54 | –
95.04 K | 69.84 ± 0.54 | –
97.35 K | 70.59 ± 0.54 | –
97.94 K | 71.11 ± 0.54 | –
100 K | 71.7 ± 0.54 | –
100.85 K | 72.3 ± 0.54 | –
102.59 K | 72.97 ± 0.55 | –
103.77 K | 73.61 ± 0.55 | –
105.15 K | 73.98 ± 0.55 | –
106.7 K | 74.69 ± 0.55 | –
109.64 K | 75.86 ± 0.55 | –
110 K | 76 ± 0.55 | –
112.58 K | 77.06 ± 0.55 | –
115.54 K | 78.22 ± 0.56 | –
118.5 K | 79.39 ± 0.56 | –
120 K | 79.98 ± 0.56 | –
121.46 K | 80.54 ± 0.56 | –
124.44 K | 81.71 ± 0.56 | –
127.42 K | 82.85 ± 0.57 | –
130 K | 83.85 ± 0.57 | –
130.4 K | 84.01 ± 0.57 | –
133.39 K | 85.14 ± 0.57 | –
136.39 K | 86.25 ± 0.57 | –
139.39 K | 87.37 ± 0.57 | –
140 K | 87.59 ± 0.58 | –
142.39 K | 88.47 ± 0.58 | –
145.4 K | 89.57 ± 0.58 | –
148.41 K | 90.66 ± 0.58 | –
150 K | 91.25 ± 0.58 | –
151.43 K | 91.77 ± 0.58 | –
154.45 K | 92.84 ± 0.59 | –
157.47 K | 93.92 ± 0.59 | –
160 K | 94.86 ± 0.59 | –
160.49 K | 95.04 ± 0.59 | –
163.52 K | 96.13 ± 0.59 | –
166.54 K | 97.21 ± 0.59 | –
169.55 K | 98.29 ± 0.6 | –
170 K | 98.46 ± 0.6 | –
172.58 K | 99.4 ± 0.6 | –
175.6 K | 100.5 ± 0.6 | –
178.62 K | 101.59 ± 0.6 | –
180 K | 102.09 ± 0.6 | –
181.65 K | 102.69 ± 0.61 | –
184.69 K | 103.79 ± 0.61 | –
187.72 K | 104.9 ± 0.61 | –
190 K | 105.74 ± 0.61 | –
190.75 K | 106.01 ± 0.61 | –
193.79 K | 107.09 ± 0.61 | –
196.83 K | 108.2 ± 0.62 | –
199.86 K | 109.24 ± 0.62 | –
200 K | 109.29 ± 0.62 | –
202.9 K | 110.27 ± 0.62 | –
205.94 K | 111.41 ± 0.62 | –
208.97 K | 112.54 ± 0.63 | –
210 K | 112.91 ± 0.63 | –
212.01 K | 113.63 ± 0.63 | –
215.05 K | 114.77 ± 0.63 | –
218.09 K | 115.88 ± 0.63 | –
220 K | 116.57 ± 0.63 | –
221.12 K | 116.98 ± 0.63 | –
224.16 K | 118.12 ± 0.64 | –
227.19 K | 119.19 ± 0.64 | –
230 K | 120.22 ± 0.64 | –
230.23 K | 120.31 ± 0.64 | –
233.27 K | 121.42 ± 0.64 | –
236.31 K | 122.55 ± 0.65 | –
239.34 K | 123.69 ± 0.65 | –
240 K | 123.94 ± 0.65 | –
242.38 K | 124.8 ± 0.65 | –
245.41 K | 125.94 ± 0.65 | –
248.44 K | 127.13 ± 0.65 | –
250 K | 127.69 ± 0.66 | –
251.48 K | 128.22 ± 0.66 | –
254.52 K | 129.34 ± 0.66 | –
257.56 K | 130.47 ± 0.66 | –
260 K | 131.36 ± 0.66 | –
260.6 K | 131.58 ± 0.66 | –
263.64 K | 132.68 ± 0.67 | –
266.67 K | 133.83 ± 0.67 | –
269.71 K | 134.94 ± 0.67 | –
270 K | 135.04 ± 0.67 | –
272.74 K | 136.06 ± 0.67 | –
275.78 K | 137.2 ± 0.67 | –
278.81 K | 138.23 ± 0.68 | –
280 K | 138.63 ± 0.68 | –
281.84 K | 139.24 ± 0.68 | –
284.87 K | 140.31 ± 0.68 | –
287.9 K | 141.45 ± 0.68 | –
290 K | 142.24 ± 0.68 | –
290.93 K | 143.08 ± 0.69 | –
292.89 K | 143.33 ± 0.69 | –
293.96 K | 143.64 ± 0.69 | –
295.8 K | 144.5 ± 0.69 | –
296.99 K | 144.79 ± 0.69 | –
298.15 K | 145.34 ± 0.69 | –
298.79 K | 145.71 ± 0.69 | –
300 K | 145.97 ± 0.69 | –
300.02 K | 145.98 ± 0.69 | –
301.84 K | 146.94 ± 0.69 | –
303.03 K | 147.07 ± 0.69 | –
304.88 K | 148.06 ± 0.7 | –
306.05 K | 148.21 ± 0.7 | –
307.92 K | 149.18 ± 0.7 | –
309.07 K | 149.34 ± 0.7 | –
310 K | 149.79 ± 0.7 | –
310.96 K | 150.23 ± 0.7 | –
312.09 K | 150.47 ± 0.7 | –
314 K | 151.06 ± 0.7 | –
317.04 K | 152.02 ± 0.7 | –
320 K | 153.12 ± 0.71 | –
320.07 K | 153.14 ± 0.71 | –
323.1 K | 154.4 ± 0.71 | –
326.13 K | 155.58 ± 0.71 | –
329.16 K | 156.76 ± 0.71 | –
330 K | 157.09 ± 0.71 | –
332.19 K | 157.97 ± 0.72 | –
335.22 K | 159.26 ± 0.72 | –
338.24 K | 160.5 ± 0.72 | –
340 K | 161.27 ± 0.72 | –
341.26 K | 161.81 ± 0.72 | –
344.28 K | 163.16 ± 0.73 | –
347.3 K | 164.65 ± 0.73 | –
350 K | 166.05 ± 0.73 | –
350.32 K | 166.28 ± 0.73 | –
360 K | 171.43 ± 0.74 | –
360.48 K | 171.7 ± 0.74 | 190.38 ± 0.78
362.85 K | – | 190.92 ± 0.78
363.89 K | – | 191.22 ± 0.78
365.71 K | – | 191.62 ± 0.78
366.91 K | – | 191.91 ± 0.78
368.72 K | – | 192.27 ± 0.78
369.93 K | – | 192.55 ± 0.79
370 K | – | 192.57 ± 0.78
371.72 K | – | 192.9 ± 0.79
372.94 K | – | 193.22 ± 0.79
374.79 K | – | 193.57 ± 0.79
377.7 K | – | 194.15 ± 0.79
380 K | – | 194.61 ± 0.79
380.68 K | – | 194.75 ± 0.79
